{
  "source": "patent US20230048888A1",
  "about": "“USE OF TRIAZOLOTRIAZINE DERIVATIVE IN TREATMENT OF DISEASES” (ZHEJIANG VIMGREEN PHARMACEUTICALS, LTD., priority 2019, published 2023)",
  "key": {"[1]": {"molecular_target": "T1, Human adenosine ADORA3 receptor membrane protein (Homo sapiens, UniProt P0DMS8)", "T1 construct": "purchased PerkinElmer ES-012-M400UA", "T1 sequence (P0DMS8 1-318)": "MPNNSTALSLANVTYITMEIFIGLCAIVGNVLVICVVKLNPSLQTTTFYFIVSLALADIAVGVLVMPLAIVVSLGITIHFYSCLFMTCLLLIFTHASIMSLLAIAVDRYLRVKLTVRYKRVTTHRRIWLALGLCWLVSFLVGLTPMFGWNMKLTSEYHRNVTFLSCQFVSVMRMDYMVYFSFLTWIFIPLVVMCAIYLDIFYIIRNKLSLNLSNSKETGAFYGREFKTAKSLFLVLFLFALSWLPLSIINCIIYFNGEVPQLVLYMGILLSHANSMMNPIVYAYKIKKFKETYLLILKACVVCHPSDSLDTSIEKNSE", "assay": "Radioisotope ligand competitive binding, ADORA3 ([3H] HEMADO)", "settings": "ADORA3 (IC50, nM, n = 3), binding test", "description": "ADORA3: 25 mM HEPES pH 7.4, 10 mM MgCl2, 1 mM CaCl2, 0.5% BSA\n4) Preparation of compounds: the test compounds and the reference compounds were separately diluted with 100% DMSO. For the test compounds, the initial concentration was 10 μM, with double secondary wells; 4-fold gradient dilution was carried out at 10 points; and the final working concentration was 0.038 nM-10 μM (for the second and third detection of the test compound against an ADORA2A target, the initial concentration was 2 μM, with double secondary wells, 4-fold gradient dilution was carried out at 10 points, and the final working concentration was 0.0076 nM-2 μM). For the ADORA1, ADORA2A, ADORA2B, and ADORA3 reference compounds, the initial concentration was 1 μM, with double secondary wells, 4-fold gradient dilution was carried out at 10 points, and the final working concentration was 0.0038 nM-1 μM.\n1 μL of a sample to be tested and 1 μL of a reference compound were added to a 96-well plate in sequence. […] 100 μL of cells and 100 μL of isotopes were added to all experimental wells. The 96-well plate was sealed; ADORA1, ADORA2B, and ADORA3 were incubated for 1 hour on a shaker (300 rpm) at room temperature (22° C.); and ADORA2A was incubated for 2 hours on a shaker (300 rpm) at room temperature (22° C.). At the same time, a GF/C filter plate was soaked with ADORA1, ADORA2A, ADORA2B, and ADORA3 by using 0.3% PEI for at least 30 minutes at room temperature, at 50 μL/well. After the incubation was completed, the incubated reaction system was collected onto the GF/C filter plate with a Harvester, washed 4 times and then dried for 0.5 hours in an oven at 50° C. The bottom of the dried GF/C filter plate was sealed with a film, 50 μL of scintillation solution was added to each well, which was then sealed with a Top-seal-A film. With Microbeta readings, the data was analyzed by GraphPad Prism 5.0.\n% Inhibition=100×(1−(Sample_raw value−Low control_Average)/(High control_Average−Low control_Average))\nThe data was fitted with “log(inhibitor) vs response-variable slope” in GraphPad Prism 5.0 to obtain IC50."}, "human ADORA3": {"molecular_target": "T2, human ADORA3 (Homo sapiens, UniProt P0DMS8)", "T2 construct": "host or cells: CHO", "T2 sequence (P0DMS8 1-318)": "T1 sequence (P0DMS8 1-318)", "assay": "Calcium flow test (FLIPR), ADORA3 stably transfected CHO", "assay_type": "cell-based", "settings": "Table 9", "description": "In this experiment, stably transfected cell lines over-expressing adenosine receptor coupled to human Gq were used, and the antagonistic function of Compound 22 was evaluated by testing the changes in intracellular calcium ion concentration. The binding of the A2AR agonist to A2AR could activate a downstream pathway to increase the intracellular calcium ion concentration. The antagonist would competitively occupy the binding site where the agonist binds to A2AR, thereby interrupting the intracellular signal transduction and leading to a change in the intracellular calcium ion concentration. By detecting the strength of the intracellular calcium ion signal, the antagonistic activities of the compound on human ADORA1, ADORA2A, ADORA2B and ADORA3 adenosine receptors were determined. […]\n7) The FLIPR instrument software was operated; following a set program, 10 μL of experimental buffer salt solution was added to the cell plate; and fluorescence signals were read. Then, 10 μL of the reference compound of agonist at a predetermined concentration was added to the cell plate, and the fluorescence signals were read. After reading, data was exported by means of “Max-Min” and “Read 91 to Maximum allowed” in the software, the EC80 of each cell line was calculated, and an agonist with a concentration of 6×EC80 was prepared.\n9) The FLIPR instrument software was operated; following a set program, 10 μL of the test compound and 10 μL of the reference compound were added at a predetermined concentration to the cell plate; and the fluorescence signals were read. Then, 10 μL of the reference compound of agonist at a concentration of 6×EC80 was added to the cell plate, and the fluorescence signal were read. For the antagonist detection of the compound, data was exported by means of “Max-Min” and “Read 1 to 90” in the software. […]"}},
  "data": [
    {"compound": "Nc1nc2ccc(Cl)cc2c2nc(-c3ccco3)nn12", "note": "[CGS-15943, reference compound]", "values": [
      {"measurement": "IC50", "setting": "[1]; Table 10 (IC50)", "result": "18 ± 11.4", "unit": "nM"},
      {"measurement": "IC50", "setting": "[1]; Table 11", "result": 14.5, "unit": "nM"},
      {"measurement": "IC50", "setting": "human ADORA3", "result": "32.1 ± 4.52", "unit": "nM"}
    ]}
  ]
}
